The values below come from patent US9670227B2, “Thienopyrimidine derivatives, a process for their preparation and pharmaceutical compositions containing them” (LES LABORATOIRES SERVIER, priority 2013, dated 2017).

What is called IC50 is the point on the concentration scale where inhibition reaches its midpoint.

Mcl-1 protein, sequence (Q07820 whole entry): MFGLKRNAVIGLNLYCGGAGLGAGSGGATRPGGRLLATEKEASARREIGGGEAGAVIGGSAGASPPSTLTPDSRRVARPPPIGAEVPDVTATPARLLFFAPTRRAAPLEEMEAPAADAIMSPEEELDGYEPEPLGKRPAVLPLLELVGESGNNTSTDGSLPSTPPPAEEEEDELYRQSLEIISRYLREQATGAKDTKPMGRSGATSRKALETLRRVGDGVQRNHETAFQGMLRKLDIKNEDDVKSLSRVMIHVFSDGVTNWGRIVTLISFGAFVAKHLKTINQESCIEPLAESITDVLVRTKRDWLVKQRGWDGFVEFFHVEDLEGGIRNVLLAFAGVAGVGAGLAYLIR

The target of the first assay is Mcl-1 protein (UniProtKB primary accession number: Q07820) (Homo sapiens, UniProt Q07820). Description: Inhibition of Mcl-1 by fluorescence polarisation, Method 1. Format: binding. Particulars: fluorescence polarisation test; Method 1, or Method 2 where the value is underlined (underlining not visible); read-out: IC50 (M) Mcl-1 FP. In a few lines:
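Buffer of 10 mM HEPES pH 7.4 with 150 mM NaCl and 0.05% Tween 20 held 5 nM Mcl-1 and 1 nM fluorescein-tagged ligand (final). Compounds were tested as 11-point serial dilutions at 5% final DMSO, and binding was read by FP.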
A general note: In fluorescence polarisation assays a small probe gives low polarisation when free and higher when bound to something large.
For the molecule `COCCOC(=O)C(Cc1ccccc1OCc1ccnn1C(C)(C)C)Oc1ncnc2sc(-c3ccc(F)cc3)c(-c3ccc(OCCN(C)C)c(Cl)c3C)c12` [Example 802, 2-methoxyethyl (2R)-3-{2-[(1-tert-butyl-1H-pyrazol-5-yl)methoxy]phenyl}-2-{[(5Sa)-5-{3-chloro-4-[2-(dimethylamino)ethoxy]-2-methylphenyl}-6-(4-fluorophenyl)thieno[2,3-d]pyrimidin-4-yl]oxy}propanoate], the IC50 came out at 2.88e-06 M.

Staying with this assay, now noted: fluorescence polarisation test; Method 2 values are underlined in the patent (underlining not visible here); read-out: IC50 (M) Mcl-1 FP.
Regarding `Cc1c(-c2c(-c3ccc(F)o3)sc3ncnc(OC(Cc4ccccc4OCc4cnccn4)C(=O)O)c23)ccc(OCCN2CCN(C)CC2)c1Cl` [Example 189, (2R)-2-{[(5Sa)-5-{3-chloro-2-methyl-4-[2-(4-methylpiperazin-1-yl)ethoxy]phenyl}-6-(5-fluorofuran-2-yl)thieno[2,3-d]pyrimidin-4-yl]oxy}-3-[2-(pyrazin-2-ylmethoxy)phenyl]propanoic acid], the IC50 was determined as 5.5e-09 M. The same measure, in the same setting: the result for `Cc1c(-c2c(-c3ccc(F)cc3)sc3ncnc(O[C@H](Cc4ccccc4OCc4ccnn4C)C(=O)O)c23)ccc(OCCN2CCN(C)CC2)c1Cl` [Example 69, (2R)-2-{[(5Sa)-5-{3-chloro-2-methyl-4-[2-(4-methylpiperazin-1-yl)ethoxy]phenyl}-6-(4-fluorophenyl)thieno[2,3-d]pyrimidin-4-yl]oxy}-3-{2-[(1-methyl-1H-pyrazol-5-yl)methoxy]phenyl}propanoic acid] reads 9.7e-08 M; that for `Cc1c(-c2c(-c3ccc(F)cc3)sc3ncnc(OC(Cc4ccccc4OCc4ccnn4CC(F)(F)F)C(=O)O)c23)ccc(OCCN2CCN(C)CC2)c1Cl` [Example 77, (2R)-2-{[(5Sa)-5-{3-chloro-2-methyl-4-[2-(4-methylpiperazin-1-yl)ethoxy]phenyl}-6-(4-fluorophenyl)thieno[2,3-d]pyrimidin-4-yl]oxy}-3-(2-{[1-(2,2,2-trifluoroethyl)-1H-pyrazol-5-yl]methoxy}phenyl)propanoic acid], 5.9e-09 M.

The same assay, now with this note: fluorescence polarisation; Method 1, or Method 2; read-out: IC50 (M) Mcl-1 FP.
In the case of `CCc1sc2ncnc(OC(Cc3ccccc3)C(=O)O)c2c1-c1ccc(OCCN(C)C)cc1C` [Example 410, (2R)-2-[((5Ra)-5-{4-[2-(dimethylamino)ethoxy]-2-methylphenyl}-6-ethylthieno[2,3-d]pyrimidin-4-yl)oxy]-3-phenylpropanoic acid], the IC50 came to 2.2e-06 M.

Turning to `CC#Cc1sc2ncnc(OC(Cc3ccccc3OCc3ccnn3CCCC)C(=O)O)c2c1-c1ccc(OCCN2CCN(C)CC2)c(Cl)c1C` [Example 490, (2R)-3-{2-[(1-butyl-1H-pyrazol-5-yl)methoxy]phenyl}-2-{[(5Sa)-5-{3-chloro-2-methyl-4-[2-(4-methylpiperazin-1-yl)ethoxy]phenyl}-6-(prop-1-yn-1-yl)thieno[2,3-d]pyrimidin-4-yl]oxy}propanoic acid], the IC50 is 3e-09 M.

As for `Cc1c(-c2c(-c3cnn(C)c3)sc3ncnc(OC(Cc4ccccc4)C(=O)O)c23)ccc(OCCN2CCOCC2)c1Cl` [Example 712, (2R)-2-{[(5Sa)-5-{3-chloro-2-methyl-4-[2-(morpholin-4-yl)ethoxy]phenyl}-6-(1-methyl-1H-pyrazol-4-yl)thieno[2,3-d]pyrimidin-4-yl]oxy}-3-phenylpropanoic acid], the IC50 came out at 4.1e-07 M. On the same count and under the same terms, with `CC/C=C\c1sc2ncnc(O[C@H](Cc3ccccc3)C(=O)O)c2c1-c1ccc(OCCN2CCN(C)CC2)c(Cl)c1C` [Example 493, (2R)-2-[(6-[(1Z)-but-1-en-1-yl]-(5Sa)-5-{3-chloro-2-methyl-4-[2-(4-methylpiperazin-1-yl)ethoxy]phenyl}thieno[2,3-d]pyrimidin-4-yl)oxy]-3-phenylpropanoic acid] the figure was 5e-09 M. Still for that read-out and setting: with `Cc1c(-c2c(-c3cc4ccccc4o3)sc3ncnc(OC(Cc4ccccc4)C(=O)O)c23)ccc(OCCN2CCN(C)CC2)c1Cl` [Example 496, (2R)-2-{[6-(1-benzofuran-2-yl)-(5Sa)-5-{3-chloro-2-methyl-4-[2-(4-methylpiperazin-1-yl)ethoxy]phenyl}thieno[2,3-d]pyrimidin-4-yl]oxy}-3-phenylpropanoic acid] the figure was 2e-07 M. Consider `Cc1c(Cl)cccc1-c1c(-c2ccco2)sc2ncnc(OC(Cc3ccccc3OCCN3CCN(C)CC3)C(=O)O)c12` [Example 666, (2R)-2-{[(5Sa)-5-(3-chloro-2-methylphenyl)-6-(furan-2-yl)thieno[2,3-d]pyrimidin-4-yl]oxy}-3-{2-[2-(4-methylpiperazin-1-yl)ethoxy]phenyl}propanoic acid], for which the IC50 was 7.7e-08 M.

Consider `Cc1c(-c2c(-c3ccc(F)cc3)sc3ncnc(OC(Cc4ccccc4)C(=O)O)c23)ccc(OCCN2CCN(C)CC2)c1Cl` [Example 498, (2R)-2-{[(5Sa)-5-{3-chloro-2-methyl-4-[2-(4-methylpiperazin-1-yl)ethoxy]phenyl}-6-(4-fluorophenyl)thieno[2,3-d]pyrimidin-4-yl]oxy}-3-phenylpropanoic acid], for which the IC50 was found to be 7.4e-08 M. Same read-out and setting: with `Cc1ccsc1-c1sc2ncnc(OC(Cc3ccccc3)C(=O)O)c2c1-c1ccc(OCCN2CCN(C)CC2)c(Cl)c1C` [Example 517, (2R)-2-{[(5Sa)-5-{3-chloro-2-methyl-4-[2-(4-methylpiperazin-1-yl)ethoxy]phenyl}-6-(3-methylthiophen-2-yl)thieno[2,3-d]pyrimidin-4-yl]oxy}-3-phenylpropanoic acid] the figure was 5.1e-07 M; with `CC#Cc1sc2ncnc(OC(Cc3ccccc3OC)C(=O)O)c2c1-c1cc(C)c(OCCN2CCN(C)CC2)c(Cl)c1C` [Example 474, (2R)-2-{[(5Ra)-5-{3-chloro-2,5-dimethyl-4-[2-(4-methylpiperazin-1-yl)ethoxy]phenyl}-6-(prop-1-yn-1-yl)thieno[2,3-d]pyrimidin-4-yl]oxy}-3-(2-methoxyphenyl)propanoic acid], 5.5e-07 M; with `Cc1c(-c2c(-c3ccc(F)cc3)sc3ncnc(OC(Cc4ccccc4OCc4ccnn4Cc4ccncc4)C(=O)O)c23)ccc(OCCN2CCN(C)CC2)c1Cl` [Example 736, (2R)-2-{[(5Sa)-5-{3-chloro-2-methyl-4-[2-(4-methylpiperazin-1-yl)ethoxy]phenyl}-6-(4-fluorophenyl)thieno[2,3-d]pyrimidin-4-yl]oxy}-3-(2-{[1-(pyridin-4-ylmethyl)-1H-pyrazol-5-yl]methoxy}phenyl)propanoic acid], 2.58e-09 M.

Staying with this assay, now noted: partial inhibitors; @ 10 uM test compound.
Turning to `CC#Cc1sc2ncnc(O[C@@H](Cc3cccc4occc34)C(=O)O)c2c1-c1ccc(OCCN2CCN(C)CC2)c(Cl)c1C` [Example 491, (2S)-3-(1-benzofuran-4-yl)-2-{[(5Ra)-5-{3-chloro-2-methyl-4-[2-(4-methylpiperazin-1-yl)ethoxy]phenyl}-6-(prop-1-yn-1-yl)thieno[2,3-d]pyrimidin-4-yl]oxy}propanoic acid], the “percentage fluorescence polarisation inhibition, Mcl-1 FP” value worked out at 28.3% @ 10 uM.

The same assay, now with this note: test compound at 10 uM; Method 1, or Method 2 where the value is underlined (underlining not visible).
As to `CCOC(=O)[C@@H](Cc1ccccc1OCc1ccnc(-c2ccccc2OC)n1)Oc1ncnc2sc(-c3ccc(F)cc3)c(-c3ccc(OC)c(Cl)c3C)c12` [Example 843, ethyl (2R)-2-{[(5Sa)-5-(3-chloro-4-methoxy-2-methylphenyl)-6-(4-fluorophenyl)thieno[2,3-d]pyrimidin-4-yl]oxy}-3-(2-{[2-(2-methoxyphenyl)pyrimidin-4-yl]methoxy}phenyl)propanoate], the “percentage fluorescence polarisation inhibition (Mcl-1 FP), partial inhibitors” value worked out at 23.05% @ 10 uM.
